Measured values taken from patent publication US7928139B2 (Amgen Inc., priority 2006, dated 2011).

Biological target: HIF PHD2 (Homo sapiens, UniProt Q9GZT9)
Experiment: PHD2 inhibition assay (TR-FRET, VCB-Eu detection of hydroxylated P564-HIF1α peptide)
Type: biochemical
Conditions: 2 nM PHD2, 100 nM P564-HIF1α peptide, 0.25 μM 2-oxoglutarate, 100 μM FeCl2, 2 mM ascorbic acid
In short: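 Human PHD2 (2 nM final) preincubated 1 h at room temperature with compound and 100 μM FeCl2 in pH 6 MES buffer, 5% DMSO final. Reaction with 100 nM biotinylated P564-HIF1α peptide, 2 mM ascorbate and 0.25 μM 2-oxoglutarate for 1 h, stopped with succinate. Hydroxylation read by TR-FRET (VCB-Eu/streptavidin-APC, 655/615 nm); IC50 from 4-parameter fit of percent of control.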

Chain of HIF PHD2 (Q9GZT9 whole entry): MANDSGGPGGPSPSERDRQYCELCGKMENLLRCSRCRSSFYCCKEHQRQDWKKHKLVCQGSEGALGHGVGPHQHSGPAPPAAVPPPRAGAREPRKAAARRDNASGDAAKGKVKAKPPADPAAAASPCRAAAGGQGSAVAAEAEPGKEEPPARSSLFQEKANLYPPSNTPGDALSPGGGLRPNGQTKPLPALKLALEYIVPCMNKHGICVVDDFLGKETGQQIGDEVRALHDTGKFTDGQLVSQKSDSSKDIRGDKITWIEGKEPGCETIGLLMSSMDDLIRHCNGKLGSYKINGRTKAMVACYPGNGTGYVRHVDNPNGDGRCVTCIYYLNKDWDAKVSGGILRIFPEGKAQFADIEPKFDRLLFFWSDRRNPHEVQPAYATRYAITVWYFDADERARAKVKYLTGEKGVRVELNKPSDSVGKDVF

IC50 | Compound
< 0.1 µM | COC/C=C/c1ccc2c(c1)C(C)(C)C(=O)C(C(=O)NCC(=O)O)=C2O [Example 98, N-((4-Hydroxy-1,1-dimethyl-7-((1E)-3-(methyloxy)-1-propen-1-yl)-2-oxo-naphthalen-3-yl)carbonyl)glycine]
< 0.1 µM | COCCCc1ccc2c(c1)C(C)(C)C(=O)C(C(=O)NCC(=O)O)=C2O [Example 99, N-((4-Hydroxy-1,1-dimethyl-7-(3-(methyloxy)propyl)-2-oxo-naphthalen-3-yl)carbonyl)glycine]
> 10 µM | CNC(=O)C1=C(O)c2cc(Cl)ccc2C(C)(C)C1=O [Example 100, 6-Chloro-4-hydroxy-N,1,1-trimethyl-2-oxo-naphthalene-3-carboxamide]
> 10 µM | CC1(C)C(=O)C(C(N)=O)=C(O)c2cc(Cl)ccc21 [Example 101, 6-Chloro-4-hydroxy-1,1-dimethyl-2-oxo-naphthalene-3-carboxamide]
> 10 µM | C[C@@H](NC(=O)C1=C(O)c2cc(Cl)ccc2C(C)(C)C1=O)C(=O)O [Example 102, N-((6-chloro-4-hydroxy-1,1-dimethyl-2-oxo-naphthalen-3-yl)carbonyl)-D-alanine]
< 0.1 µM | CC1(C)C(=O)C(C(=O)NCC(=O)O)=C(O)c2cccnc21 [Example 103, 2-(5-Hydroxy-8,8-dimethyl-7-oxo-7,8-dihydroquinoline-6-carboxamido)acetic acid]
< 0.1 µM | CC1(C)C(=O)C(C(=O)CCC(=O)O)=C(O)c2cc(Br)ccc21 [Example 104, 4-(7-Bromo-1-hydroxy-4,4-dimethyl-3-oxo-3,4-dihydronaphthalen-2-yl)-4-oxobutanoic acid]
< 0.1 µM | CC1(C)C(=O)C(C(=O)NCC(=O)O)=C(O)c2ccncc21 [Example 105, 2-(5-Hydroxy-8,8-dimethyl-7-oxo-7,8-dihydroisoquinoline-6-carboxamido)acetic acid]
< 0.1 µM | CC1(C)C(=O)C(C(=O)NCC(=O)O)=C(O)c2ccc(C(=O)O)cc21 [Example 106, 6-((Carboxymethyl)carbamoyl)-7-hydroxy-8,8-dimethyl-5-oxo-5,8-dihydronaphthalene-2-carboxylic acid]
0.1 to 0.5 µM | CC1(C)C(=O)C(C(=O)NCC(=O)O)=C(O)c2ccc(NCCN3CCOCC3)cc21 [Example 107, 2-(2-Hydroxy-1,1-dimethyl-7-(2-morpholinoethylamino)-4-oxo-1,4-dihydronaphthalene-3-carboxamido)acetic acid]
< 0.1 µM | CC1(C)C(=O)C(C(=O)NCC(=O)O)=C(O)c2ccc(/C=C/c3ccccc3)cc21 [Example 108, (E)-2-(2-Hydroxy-1,1-dimethyl-4-oxo-7-styryl-1,4-dihydronaphthalene-3-carboxamido)acetic acid]
< 0.1 µM | CC1(C)C(=O)C(C(=O)NCC(=O)O)=C(O)c2ccc(CCc3ccccc3)cc21 [Example 109, 2-(2-Hydroxy-1,1-dimethyl-4-oxo-7-phenethyl-1,4-dihydronaphthalene-3-carboxamido)acetic acid]
0.1 to 0.5 µM | CC1(C)C(=O)C(C(=O)NCC(=O)O)=C(O)c2ccc(C#Cc3ccccc3)cc21 [Example 110, 2-(2-Hydroxy-1,1-dimethyl-4-oxo-7-(2-phenylethynyl)-1,4-dihydronaphthalene-3-carboxamido)acetic acid]
< 0.1 µM | O=C(O)CNC(=O)C1=C(O)c2cccc(Cl)c2C2(CCOCC2)C1=O [Example 111, N-((8-Chloro-2-hydroxy-4-oxo-2′,3′,5′,6′-tetrahydro-4H-spiro[naphthalene-1,4′-pyran]-3-yl)carbonyl)glycine]
< 0.1 µM | O=C(O)CNC(=O)C1=C(O)c2c(Cl)cccc2C2(CCOCC2)C1=O [Example 112, N-((5-Chloro-2-hydroxy-4-oxo-2′,3′,5′,6′-tetrahydro-4H-spiro[naphthalene-1,4′-pyran]-3-yl)carbonyl)glycine]
< 0.1 µM | O=C(O)CNC(=O)C1=C(O)c2ccc(F)c(F)c2C2(CCOCC2)C1=O [Example 113, N-((7,8-Difluoro-2-hydroxy-4-oxo-2′,3′,5′,6′-tetrahydro-4H-spiro[naphthalene-1,4′-pyran]-3-yl)carbonyl)glycine]
1 to 10 µM | CCCCCCCCc1ccc2c(c1)C(C)(C)C(=O)C(C(=O)NCC(=O)O)=C2O [Example 115, 2-(2-hydroxy-1,1-dimethyl-7-octyl-4-oxo-1,4-dihydronaphthalene-3-carboxamido) acetic acid]
< 0.1 µM | COCC#Cc1ccc2c(c1)C(C)(C)C(=O)C(C(=O)NCC(=O)O)=C2O [Example 116, 2-(2-hydroxy-7-(3-methoxyprop-1-ynyl)-1,1-dimethyl-4-oxo-1,4-dihydronaphthalene-3-carboxamido) acetic acid]
< 0.1 µM | CC1(C)C(=O)C(C(=O)NCC(=O)O)=C(O)c2ccc(C#Cc3cccnc3)cc21 [Example 117, 2-(2-hydroxy-1,1-dimethyl-4-oxo-7-(2-(pyridin-3-yl)ethynyl)-1,4-dihydronaphthalene-3-carboxamido) acetic acid]
0.1 to 0.5 µM | CC1(C)C(=O)C(C(=O)CCC(=O)O)=C(O)c2cc(Cl)c(Cl)cc21 [Example 118, 4-(6,7-Dichloro-3-hydroxy-4,4-dimethyl-1-oxo-1,4-dihydro-2-naphthalenyl)-4-oxobutanoic acid]
< 0.1 µM | O=C(O)CCC(=O)C1=C(O)c2cc(Cl)ccc2C2(CCOCC2)C1=O [Example 119, 4-(6-Chloro-2-hydroxy-4-oxo-2′,3′,5′,6′-tetrahydro-4H-spiro[naphthalene-1,4′-pyran]-3-yl)-4-oxobutanoic acid]
1 to 10 µM | CC(CC(=O)O)C(=O)C1=C(O)c2cc(Cl)ccc2C2(CCOCC2)C1=O (stereo not shown) [Example 121, 4-(6-Chloro-2-hydroxy-4-oxo-2′,3′,5′,6′-tetrahydro-4H-spiro[naphthalene-1,4′-pyran]-3-yl)-3-methyl-4-oxobutanoic acid]
1 to 10 µM | CC1(C#N)C(=O)C(C(=O)CCC(=O)O)=C(O)c2cc(Cl)ccc21 (stereo not shown) [Example 123, 4-(7-chloro-4-cyano-3-hydroxy-4-methyl-1-oxo-1,4-dihydro-2-naphthalenyl)-4-oxobutanoic acid]
0.1 to 0.5 µM | CC1(C)C(=O)C(C(=O)CCC(=O)O)=C(O)c2ccc(F)c(F)c21 [Example 126, 4-(5,6-difluoro-1-hydroxy-4,4-dimethyl-3-oxo-3,4-dihydronaphthalen-2-yl)-4-oxobutanoic acid]
0.1 to 0.5 µM | CC1(C)C(=O)C(C(=O)CCC(=O)O)=C(O)c2ccc(Cl)cc21 [Example 127, 4-(6-chloro-1-hydroxy-4,4-dimethyl-3-oxo-3,4-dihydronaphthalen-2-yl)-4-oxobutanoic acid]
< 0.1 µM | O=C(O)CCC(=O)C1=C(O)c2ccc(Cl)cc2C2(CCOCC2)C1=O [Example 128, 4-(7-chloro-2-hydroxy-4-oxo-2′,3′,5′,6′-tetrahydro-4H-spiro[naphthalene-1,4′-pyran]-3-yl)-4-oxobutanoic acid]
< 0.1 µM | CC1(C#N)C(=O)C(C(=O)NCC(=O)O)=C(O)c2ccc(Cl)cc21 (stereo not shown) [Example 129, 2-(7-chloro-1-cyano-4-hydroxy-1-methyl-2-oxo-1,2-dihydronaphthalene-3-carboxamido) acetic acid]
< 0.1 µM | CC1(C#N)C(=O)C(C(=O)NCC(=O)O)=C(O)c2ccc(F)cc21 (stereo not shown) [Example 130, 2-(1-cyano-7-fluoro-4-hydroxy-1-methyl-2-oxo-1,2-dihydronaphthalene-3-carboxamido) acetic acid]
